Here are results for 3 molecules from publication PMC9977398, “Next-generation membrane-active glycopeptide antibiotics that also inhibit bacterial cell division” (Chemical Science, 2023).

The test system of one assay is planktonic cells. As to the kind of experiment: Viability of planktonic cells post-treatment in HEPES-glucose. The assay is classed as cell-based. The procedure: To confirm that membrane perturbation contributed to cell death, the bacterial viability was evaluated under conditions similar to the mechanistic studies. […] The number of viable cells was lower upon treatment with VanQAmC10 (8) than when treated with VanQbiph (4) at the same concentration. […] The stronger membrane–perturbation properties of VanQAmC10 (8) therefore contribute to higher activity against both exponentially growing and stationary phase bacteria.

A further assay deals with B. subtilis. As to the kind of experiment: Cell wall biosynthesis inhibition assay (bubble assay). The assay is classed as cell-based. The note with it: treatment at PEC. As for the experimental part: To further study the mechanisms contributing to the growth retardation, microscopic studies were carried out upon treatment of B. subtilis with compounds. Upon inhibition of cell wall biosynthesis, holes are formed in the peptidoglycan layer where new cell wall material is no longer incorporated. The cytoplasmic membrane extrudes out of these perforations, appearing as bubbles on the cell surface when treated with a 1 : 3 mixture of acetic acid and methanol.[30] […]
and the untreated control were carefully removed from the well, washed with 0.9 % saline, and placed on glass slides. The biofilms were then stained with 10 μL of SYTO9 (60μM) and imaged using a Zeiss 510 Meta confocal laser-scanning microscope. The orthogonal projections of the images were processed with LSM 5 Image examiner. The experiment was performed three times independently and the image provided is representative of these.
(§1) Determination of MIC against B. subtilis
(§2) Overnight cultures of B. subtilis 168 were grown in 50 mL flasks in 5 mL BMM media. The bacteria in the mid-log phase were then incubated with compounds for 18 h at 37 ̊C in BMM media. The MIC was determined as the lowest concentration at which no visible bacterial OD […]
Determination of Physiologically Effective Concentration7
Overnight cultures of B. subtilis 168 were grown in 50 mL flasks with 10 mL of media. Upon growing to mid-log phase (an OD500 between 0.5 and 1), bacteria was inoculated in 100mL BMM in a 500 ml flask. When the cultures reach an OD500 of 0.35, the bacteria is aliquoted into separate conicals (50 mL) with 5 ml and compounds are added. The O.D. of the solutions are recorded every 30 minutes. The concentration which retards the growth of bacteria was selected as the PEC. The experiments were performed two times independently and the images are representative of results from two independent experiments. The experiment was done together with the compound published in (J. Med. Chem. 64, 2021, 10185) and therefore the graph for vancomycin is the same.
Cell wall biosynthesis inhibition assay or Bubble assay […]

For assay [1], the system named is stationary phase cells of MRSA. As to the kind of experiment: Antibacterial activity against stationary phase bacteria. The assay is classed as cell-based, S. aureus. The note with it: for time to complete eradication: stationary phase MRSA. As for the experimental part:
The stationary phase cells and persister cells are metabolically repressed and phenotypically different from the log-phase cells.[27] For activity, the commonly used drugs, vancomycin, and linezolid require actively ongoing cellular processes. They are therefore ineffective against non-dividing bacteria. […] The integrity of the bacterial membrane is imperative to survival irrespective of metabolic state. […] It completely eradicated cells in 24 h at 10 μM and within 6 h at 20 μM. […]
Antibacterial activity against stationary phase bacteria
MRSA ATCC 33591 was grown to mid-log phase at 37 °C. The bacterial suspension was diluted 1000-fold in nutrient media and allowed to reach stationary phase in 16 h. The bacterial suspension was diluted and spot-plated to determine the bacterial count. The 16 h growth culture was diluted to ~10^6 CFU/mL in PBS. 150 μL of this bacterial suspension was then incubated with 50 μL of test compounds in a 96 well-plate. The compound and bacteria were then incubated at 37 °C for 2h. The suspension was serially diluted 10 fold and spot-plated on […]. The viable bacteria were then counted after 48 h incubation at 37 °C. The results represented are the average of two independent experiments carried in duplicates. […]

For the next assay, the system named is B. subtilis 168. As to the kind of experiment: Determination of MIC against B. subtilis. The settings on record: read-out: MIC against B. subtilis. The assay is classed as cell-based. The procedure: as §1, §2
Overnight bacterial cultures were inoculated in BMM and allowed to grow to an OD 500 of 0.35. 200 µL of the bacterial culture were incubated with compounds at 37 ̊C for 15 minutes. […]
BAC Light assay or pore formation assay
0.35. 500 µL of the bacteria was then incubated with the compounds at their respective PECSs for 10 mins in the same media at 37 ̊C. The compound was then centrifuged at 13200 rpm and […]

Assay [2] has as its system exponential growth phase MRSA. As to the kind of experiment: Time-kill kinetics, exponentially growing MRSA. The assay is classed as cell-based, S. aureus. The note with it: for time to complete eradication: exponentially growing MRSA; for minimum bactericidal concentration (MBC): log-phase MRSA. The procedure: To examine the antibacterial properties of the two leads, VanQbiph (4) and VanQAmC10 (8), the kinetics of bactericidal activity against exponentially growing, log-phase cells of MRSA was evaluated (Fig. 1B). The minimum bactericidal concentration (MBC) of VanQbiph (4) and VanQAmC10 (8) was at 2×MIC. […]
Time-kill kinetics assay 4
The bactericidal activity of the compounds was evaluated with the time kill kinetics assay.
MRSA ATCC 33591 cells were cultured in nutrient media at 37°C for 6 h. VanQAmC 10, VanQbiph, and vancomycin was added to the bacterial solution (~1.8×10^5 CFU/mL) with the working concentration of 25 μM. This was incubated at 37°C. At different time intervals (0, 1, 2, 3, 6 and 24 h) 20 μL of aliquots from that solution were serially diluted 10 -fold in 0.9 % saline. Then from the dilutions, 20 μL was plated on yeast -dextrose agar plates and incubated at 37°C for 24 h. The bacterial colonies were counted and results are represented in logarithmic scale, i.e. log10 (CFU/mL). […]

In brackets after ≈: the same amount, converted by molar mass. Like-named read-outs stand apart in the source and are kept apart here. Some results are limits rather than exact numbers.

In general, MIC refers to the lowest concentration that inhibits growth of the organism.

For the molecule `CCCCCCCCCCNC(=O)C[N+](C)(C)CCCNC(=O)C1NC(=O)C2NC(=O)C(NC(=O)C3NC(=O)C(CC(N)=O)NC(=O)C(NC(=O)C(CC(C)C)NC)C(O)c4ccc(c(Cl)c4)Oc4cc3cc(c4OC3OC(CO)C(O)C(O)C3OC3CC(C)(N)C(O)C(C)O3)Oc3ccc(cc3Cl)C2O)c2ccc(O)c(c2)-c2c(O)cc(O)cc21` (centres unmarked) [VanQAmC10 (8)], the “reduction in viable cells” value with planktonic cells (5 μM) came to 2 log CFU mL^−1; in the assay on planktonic cells (10 μM) it was 4 log CFU mL^−1. Besides, the “cell wall biosynthesis inhibition (bubbles after acetic acid/methanol fixation)” value in the assay with B. subtilis is listed as “showed bubbles on the surface”. The “time to complete eradication” value in assay [1] (10 μM) is on record as 24 h; in assay [1] (20 μM), “up to 6 h”; in assay [2] (8×MIC), not above 6 h. Further, the MIC in the assay on B. subtilis 168 (Bacillus subtilis, 168, 18 h) amounted to 0.25 µM. Also, the “minimum bactericidal concentration (MBC)” value in assay [2] is 2 ×MIC.

Regarding `CN[C@H](CC(C)C)C(=O)N[C@H]1C(=O)N[C@@H](CC(N)=O)C(=O)N[C@H]2C(=O)N[C@H]3C(=O)N[C@H](C(=O)N[C@H](C(=O)O)c4cc(O)cc(O)c4-c4cc3ccc4O)[C@H](O)c3ccc(c(Cl)c3)Oc3cc2cc(c3O[C@@H]2O[C@H](CO)[C@@H](O)[C@H](O)[C@H]2O[C@H]2C[C@](C)(N)[C@H](O)[C@H](C)O2)Oc2ccc(cc2Cl)[C@H]1O` [Vancomycin, reference compound], the “effect on viable cells” value in the assay with planktonic cells (40 μM) was “did not reduce the viability of bacteria”. In addition, the “cell wall biosynthesis inhibition (bubbles after acetic acid/methanol fixation)” value with B. subtilis is “showed bubbles on the surface”. Besides, the “effect on viable stationary phase cells” value in assay [1] (40 μM, 24 h) is on record as “did not reduce the number of viable stationary phase cells”. For the same molecule, in the assay with B. subtilis 168 (Bacillus subtilis, 168, 18 h), the minimum inhibitory concentration (MIC) came out at 0.2 µM (≈ 0.29 µg/mL). Moreover, in assay [2] (2×MIC), the “time to complete eradication” value came out at 24 h.

For the molecule `CNC(CC(C)C)C(=O)NC1C(=O)NC(CC(N)=O)C(=O)NC2C(=O)NC3C(=O)NC(C(=O)NC(C(=O)NCCC[N+](C)(C)Cc4ccc(-c5ccccc5)cc4)c4cc(O)cc(O)c4-c4cc3ccc4O)C(O)c3ccc(c(Cl)c3)Oc3cc2cc(c3OC2OC(CO)C(O)C(O)C2OC2CC(C)(N)C(O)C(C)O2)Oc2ccc(cc2Cl)C1O` (centres unmarked) [VanQbiph (4)], the results for the “reduction in viable cells” value in the assay on planktonic cells (5 μM) and with planktonic cells (10 μM) were 0.8 log CFU mL^−1 and 2.2 log CFU mL^−1, respectively. The “cell wall biosynthesis inhibition (bubbles after acetic acid/methanol fixation)” value with B. subtilis was “showed bubbles on the surface”. Also, the “time to complete eradication” value in assay [1] (20 μM) and in assay [2] (8×MIC) was 24 h in each case. Besides, the MIC in the assay on B. subtilis 168 (Bacillus subtilis, 168, BMM media, 18 h) is 0.15 µM. Also, in assay [2], the “minimum bactericidal concentration (MBC)” value worked out at 2 ×MIC.
